The values that follow come from US11370798B2 (Vertex Pharmaceuticals Incorporated, priority 2012, dated 2022).

The test concerns HCT116 colorectal cancer cells. The experiment in a line: Cisplatin sensitization assay (96 h cell viability MTS).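 Further: Test-compound concentration that lowers the Cisplatin IC50 by a set fold.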 The conditions noted are these: compound and Cisplatin added simultaneously, Cisplatin sensitization value. The test is classed as cell-based. The method, boiled down:
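Viability read by MTS (1 h at 37° C) after 96 h co-exposure at 37° C, 5% CO2. Test compound and cisplatin were dosed simultaneously in a full concentration matrix, each 2-fold serially diluted from 10 μM final; sensitization values binned in μM.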
For the compound `COc1ccncc1NC(=O)c1c(N)nn2cc(F)cnc12` [I-O-4, 2-amino-6-fluoro-N-(4-methoxypyridin-3-yl)pyrazolo[1,5-a]pyrimidine-3-carboxamide], the “Cisplatin Sensitization Assay” value was “++ (Cisplatin sensitization value>0.02 μM but <0.2 μM)”.
Consider `Nc1nn2cc(F)cnc2c1C(=O)Nc1cnccc1O[C@H]1CN2CCC1CC2` [I-O-5, (R)-2-amino-6-fluoro-N-(4-(quinuclidin-3-yloxy)pyridin-3-yl)pyrazolo[1,5-a]pyrimidine-3-carboxamide], for which the “Cisplatin Sensitization Assay” value is “+++ (Cisplatin sensitization value of <0.02 μM)”.
For `Nc1nn2cc(F)cnc2c1C(=O)Nc1cnccc1Oc1cccnc1` [I-O-7, 2-amino-6-fluoro-N-(4-(pyridin-3-yloxy)pyridin-3-yl)pyrazolo[1,5-a]pyrimidine-3-carboxamide] the value was “++ (Cisplatin sensitization value>0.02 μM but <0.2 μM)”.
Take `Nc1nn2cc(F)cnc2c1C(=O)Nc1cnccc1OC1CCC(C(=O)O)CC1` (stereo not shown) [I-O-8, 4-((3-(2-amino-6-fluoropyrazolo[1,5-a]pyrimidine-3-carboxamido)pyridin-4-yl)oxy)cyclohexanecarboxylic acid]: the “Cisplatin Sensitization Assay” value was “+ (Cisplatin sensitization value>0.2 μM but <5 μM)”.
For `Nc1nn2cc(F)cnc2c1C(=O)Nc1cnccc1O[C@H]1CCCN(C2COC2)C1` [I-O-9, (S)-2-amino-6-fluoro-N-(4-((1-(oxetan-3-yl)piperidin-3-yl)oxy)pyridin-3-yl)pyrazolo[1,5-a]pyrimidine-3-carboxamide] the value was “++ (Cisplatin sensitization value>0.02 μM but <0.2 μM)”; for `CN1CCC(Oc2ccncc2NC(=O)c2c(N)nn3cc(F)cnc23)CC1` [I-O-12, 2-amino-6-fluoro-N-(4-((1-methylpiperidin-4-yl)oxy)pyridin-3-yl)pyrazolo[1,5-a]pyrimidine-3-carboxamide], “+++ (Cisplatin sensitization value of <0.02 μM)”; for `COC(=O)[C@H]1CC[C@H](Oc2ccncc2NC(=O)c2c(N)nn3cc(F)cnc23)CC1` [I-O-13, (1r,4r)-methyl 4-((3-(2-amino-6-fluoropyrazolo[1,5-a]pyrimidine-3-carboxamido)pyridin-4-yl)oxy)cyclohexanecarboxylate], “+++ (Cisplatin sensitization value of <0.02 μM)”.
For `CCOc1ccncc1NC(=O)c1c(N)nn2cc(F)cnc12` [I-O-14, 2-amino-N-(4-ethoxypyridin-3-yl)-6-fluoropyrazolo[1,5-a]pyrimidine-3-carboxamide], the “Cisplatin Sensitization Assay” value is “+++ (Cisplatin sensitization value of <0.02 μM)”.
The entry for `Nc1nn2cc(F)cnc2c1C(=O)Nc1cnccc1O[C@H]1Cc2nccn2C1` [I-O-16, (S)-2-amino-N-(4-((6,7-dihydro-5H-pyrrolo[1,2-a]imidazol-6-yl)oxy)pyridin-3-yl)-6-fluoropyrazolo[1,5-a]pyrimidine-3-carboxamide] is “+++ (Cisplatin sensitization value of <0.02 μM)”; for `CN(C)C(=O)[C@H]1CC[C@@H](Oc2ccncc2NC(=O)c2c(N)nn3cc(F)cnc23)CC1` [I-O-17, 2-amino-N-(4-(((1s,4s)-4-(dimethylcarbamoyl)cyclohexyl)oxy)pyridin-3-yl)-6-fluoropyrazolo[1,5-a]pyrimidine-3-carboxamide] it is “+++ (Cisplatin sensitization value of <0.02 μM)”.
Consider `CN1CCN(C(=O)[C@H]2CC[C@@H](Oc3ccncc3NC(=O)c3c(N)nn4cc(F)cnc34)CC2)CC1` [I-O-19, 2-amino-6-fluoro-N-(4-(((1s,4s)-4-(4-methylpiperazine-1-carbonyl)cyclohexyl)oxy)pyridin-3-yl)pyrazolo[1,5-a]pyrimidine-3-carboxamide], for which the “Cisplatin Sensitization Assay” value is recorded as “+++ (Cisplatin sensitization value of <0.02 μM)”.
The entry for `CCC(C#N)c1cnc2c(C(=O)Nc3cnccc3OC)c(N)nn2c1` (stereo not shown) [I-O-20, 2-amino-6-(1-cyanopropyl)-N-(4-methoxypyridin-3-yl)pyrazolo[1,5-a]pyrimidine-3-carboxamide] is “++ (Cisplatin sensitization value>0.02 μM but <0.2 μM)”.
As for `COc1ccncc1NC(=O)c1c(N)nn2cc(C(C)C#N)cnc12` (stereo not shown) [I-O-21, 2-amino-6-(1-cyanoethyl)-N-(4-methoxypyridin-3-yl)pyrazolo[1,5-a]pyrimidine-3-carboxamide], the “Cisplatin Sensitization Assay” value is “++ (Cisplatin sensitization value>0.02 μM but <0.2 μM)”.
Turning to `CN1CCC(Oc2ccncc2NC(=O)c2c(N)nn3cc(CC#N)cnc23)CC1` [I-O-23, 2-amino-6-(cyanomethyl)-N-(4-((1-methylpiperidin-4-yl)oxy)pyridin-3-yl)pyrazolo[1,5-a]pyrimidine-3-carboxamide], the “Cisplatin Sensitization Assay” value was “+++ (Cisplatin sensitization value of <0.02 μM)”.
For `CN(C)CCOc1ccncc1NC(=O)c1c(N)nn2cc(CC#N)cnc12` [I-O-24, 2-amino-6-(cyanomethyl)-N-(4-(2-(dimethylamino)ethoxy)pyridin-3-yl)pyrazolo[1,5-a]pyrimidine-3-carboxamide] the value was “++ (Cisplatin sensitization value>0.02 μM but <0.2 μM)”.
As for `N#CCc1cnc2c(C(=O)Nc3cnccc3Oc3ccccc3)c(N)nn2c1` [I-O-25, 2-amino-6-(cyanomethyl)-N-(4-phenoxypyridin-3-yl)pyrazolo[1,5-a]pyrimidine-3-carboxamide], the “Cisplatin Sensitization Assay” value was “+++ (Cisplatin sensitization value of <0.02 μM)”.
For `COc1ccncc1NC(=O)c1c(N)nn2cc(CC#N)cnc12` [I-O-26, 2-amino-6-(cyanomethyl)-N-(4-methoxypyridin-3-yl)pyrazolo[1,5-a]pyrimidine-3-carboxamide] the value was “++ (Cisplatin sensitization value>0.02 μM but <0.2 μM)”; for `COc1cc(Cl)ncc1NC(=O)c1c(N)nn2cc(CC#N)cnc12` [I-O-27, 2-amino-N-(6-chloro-4-methoxypyridin-3-yl)-6-(cyanomethyl)pyrazolo[1,5-a]pyrimidine-3-carboxamide], “++ (Cisplatin sensitization value>0.02 μM but <0.2 μM)”.
Consider `CCOc1ccncc1NC(=O)c1c(N)nn2cc(CC#N)cnc12` [I-O-28, 2-amino-6-(cyanomethyl)-N-(4-ethoxypyridin-3-yl)pyrazolo[1,5-a]pyrimidine-3-carboxamide], for which the “Cisplatin Sensitization Assay” value is given as “+++ (Cisplatin sensitization value of <0.02 μM)”.
The entry for `COCCOc1ccncc1NC(=O)c1c(N)nn2cc(CC#N)cnc12` [I-O-29, 2-amino-6-(cyanomethyl)-N-(4-(2-methoxyethoxy)pyridin-3-yl)pyrazolo[1,5-a]pyrimidine-3-carboxamide] is “+++ (Cisplatin sensitization value of <0.02 μM)”; for `N#CCc1cnc2c(C(=O)Nc3cnccc3OC3CCOCC3)c(N)nn2c1` [I-O-30, 2-amino-6-(cyanomethyl)-N-(4-((tetrahydro-2H-pyran-4-yl)oxy)pyridin-3-yl)pyrazolo[1,5-a]pyrimidine-3-carboxamide] it is “+++ (Cisplatin sensitization value of <0.02 μM)”.
Consider `N#CCc1cnc2c(C(=O)Nc3cnccc3O[C@@H]3CCOC3)c(N)nn2c1` [I-O-31, (R)-2-amino-6-(cyanomethyl)-N-(4-((tetrahydrofuran-3-yl)oxy)pyridin-3-yl)pyrazolo[1,5-a]pyrimidine-3-carboxamide], for which the “Cisplatin Sensitization Assay” value is “+++ (Cisplatin sensitization value of <0.02 μM)”.
